Where two headings read alike, the source gives them in different places.
Target: T1, bacterial NAD synthetase enzyme (Bacillus subtilis, UniProt P08164)
T1 sequence (P08164 2-272 limits assumed): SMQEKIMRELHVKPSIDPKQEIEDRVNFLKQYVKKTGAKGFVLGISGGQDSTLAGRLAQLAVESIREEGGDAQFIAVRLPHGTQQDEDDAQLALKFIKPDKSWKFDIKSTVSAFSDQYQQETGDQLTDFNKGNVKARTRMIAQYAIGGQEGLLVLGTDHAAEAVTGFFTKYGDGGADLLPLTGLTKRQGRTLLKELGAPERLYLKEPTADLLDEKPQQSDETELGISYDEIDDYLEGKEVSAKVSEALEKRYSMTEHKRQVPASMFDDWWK
Test: biochemical
Assay type: biochemical

[1] = compound at 0.2 mM (Table 312A)
[2] = compound at 0.2 mM (Table 312B)
[3] = NAD synthetase enzyme inhibition, read-out: IC50 of Compounds

Row | SMILES | IC50 [µM] | % Inhibition [2] [%] | further results
1 | O=C(OCCCCCCCn1ccc2ccccc21)c1cccnc1 [Compound 944] |  |  | % Inhibition (compound at 0.05 mM): 2.06%
2 | COC(=O)c1cc2ccccc2n1CCCCCCCCCOC(=O)c1cccnc1 [Compound 950] |  |  | % Inhibition (compound at 0.05 mM): 7.32%
3 | COC(=O)c1cc2ccccc2n1CCCCCCCOC(=O)Cc1ccc(N(C)C)cc1 [Compound 960] |  |  | % Inhibition (compound at 0.05 mM): 6.37%
4 | COC(=O)c1cc2cc(OCc3ccccc3)ccc2n1CCCCCCCOC(=O)Cc1ccc(N(C)C)cc1 [Compound 964] |  |  | % Inhibition (compound at 0.05 mM): 1.18%
5 | COC(=O)c1cc2cc(OCc3ccccc3)ccc2n1CCCCCCCCOC(=O)Cc1ccc(N(C)C)cc1 [Compound 965] |  |  | % Inhibition (compound at 0.1 mM (Table 314)): 8.48%
6 | COC(=O)c1cc2cc(OCc3ccccc3)ccc2n1CCCCCCCCCOC(=O)Cc1ccc(N(C)C)cc1 [Compound 966] |  |  | % Inhibition (compound at 0.05 mM): 8.25%
7 | C[n+]1cccc(C(=O)OCCCCCCn2ccc3ccccc32)c1 [Compound 967] |  |  | % Inhibition [1]: 19.51%
8 | C[n+]1cccc(C(=O)OCCCCCCCn2ccc3ccccc32)c1 [Compound 968] |  |  | % Inhibition [1]: 88.52%
9 | C[n+]1cccc(C(=O)OCCCCCCCCn2ccc3ccccc32)c1 [Compound 969] |  |  | % Inhibition [1]: 83.16%
10 | C[n+]1cccc(C(=O)OCCCCCCCCCn2ccc3ccccc32)c1 [Compound 970] | 55 |  | inhibition at 200 µM: 96.7%
11 | COC(=O)c1cc2ccccc2n1CCCCCCOC(=O)c1ccc[n+](C)c1 [Compound 971] |  |  | % Inhibition (compound at 0.1 mM (Table 314)): 100.00%
12 | COC(=O)c1cc2ccccc2n1CCCCCCCOC(=O)c1ccc[n+](C)c1 [Compound 972] | 40 |  | inhibition at 100 µM: 96.8%
13 | COC(=O)c1cc2ccccc2n1CCCCCCCCOC(=O)c1ccc[n+](C)c1 [Compound 973] | 45 |  | inhibition at 100 µM: 97.8%
14 | COC(=O)c1cc2ccccc2n1CCCCCCCCCOC(=O)c1ccc[n+](C)c1 [Compound 974] | 35 |  | inhibition at 100 µM: 88.2%
15 | COC(=O)c1cc2cc(OCc3ccccc3)ccc2n1CCCCCCOC(=O)c1ccc[n+](C)c1 [Compound 975] | 38 |  | inhibition at 100 µM: 55.2%
16 | COC(=O)c1cc2cc(OCc3ccccc3)ccc2n1CCCCCCCCCOC(=O)c1ccc[n+](C)c1 [Compound 978] |  |  | % Inhibition (compound at 0.1 mM (Table 314)): 80.31%
17 | C[N+](C)(C)c1ccc(CC(=O)OCCCCCCn2ccc3ccccc32)cc1 [Compound 979] |  |  | % Inhibition [1]: 38.72%
18 | C[N+](C)(C)c1ccc(CC(=O)OCCCCCCCn2ccc3ccccc32)cc1 [Compound 980] |  |  | % Inhibition [1]: 74.86%
19 | C[N+](C)(C)c1ccc(CC(=O)OCCCCCCCCn2ccc3ccccc32)cc1 [Compound 981] | 60 |  | inhibition at 200 µM: 95.2%
20 | C[N+](C)(C)c1ccc(CC(=O)OCCCCCCCCCn2ccc3ccccc32)cc1 [Compound 982] | 60 |  | inhibition at 200 µM: 93.7%
21 | COC(=O)c1cc2ccccc2n1CCCCCCOC(=O)Cc1ccc([N+](C)(C)C)cc1 [Compound 983] | 25 |  | inhibition at 50 µM: 92.5%
22 | COC(=O)c1cc2cc(OCc3ccccc3)ccc2n1CCCCCCCCOC(=O)Cc1ccc([N+](C)(C)C)cc1 [Compound 989] |  |  | % Inhibition (compound at 0.1 mM (Table 314)): 54.83%
23 | O=C(OCCCCCCCCOc1ccc([N+](=O)[O-])cc1)c1cccnc1 [Compound 995] |  | 27 | 

Row | SMILES | IC50 [µM] | % Inhibition [2] [%] | further results
24 | COc1ccccc1OCCCCCCCCOC(=O)c1cccnc1 [Compound 1012] |  | 2 | 
25 | O=C(OCCCCCCCCOc1ccc(C(=O)c2ccccc2)cc1)c1cccnc1 [Compound 1013] |  | 29 | 
26 | NC(=O)c1ccc(OCCCCCCCCOC(=O)c2cccnc2)cc1 [Compound 1014] |  | 14 | 
27 | CC(=O)c1cccc(OCCCCCCCCOC(=O)c2cccnc2)c1 [Compound 1015] |  | 15 | 
28 | O=C(OCCCCCCCCOc1ccc(Oc2ccccc2)cc1)c1cccnc1 [Compound 1016] |  | 29 | 
29 | O=C(OCCCCCCCCOc1ccc(N2C(=O)c3ccccc3C2=O)cc1)c1cccnc1 [Compound 1017] |  | 23 | 
30 | O=C(OCCCCCCCCOc1cccc(N2CCOCC2)c1)c1cccnc1 [Compound 1018] |  | 17 | 
31 | O=C(OCCCCCCCCOc1ccccc1N1CCCC1)c1cccnc1 [Compound 1019] |  | 3 | 
32 | O=C(OCCCCCCCCOc1ccccc1N1CCOCC1)c1cccnc1 [Compound 1020] |  | 8 | 
33 | CN(C)c1ccc(CC(=O)OCCCCCCCCOc2ccccc2[N+](=O)[O-])cc1 [Compound 1024] |  | 45 | 
34 | CC(=O)N1CCN(c2ccc(OCCCCCCCCOC(=O)Cc3ccc(N(C)C)cc3)cc2)CC1 [Compound 1025] |  | 15 | 
35 | CC(=O)Oc1cccc(OCCCCCCCCOC(=O)Cc2ccc(N(C)C)cc2)c1 [Compound 1027] |  | 2 | 
36 | CN(C)c1ccc(CC(=O)OCCCCCCCCOc2ccccc2C(N)=O)cc1 [Compound 1031] | 36.3 |  | inhibition at 200 µM: 23%
37 | CN(C)c1ccc(CC(=O)OCCCCCCCCOc2ccc(C=CC(=O)c3ccccc3)cc2)cc1 [Compound 1034] |  | 30 | 
38 | CN(C)c1ccc(CC(=O)OCCCCCCCCOc2cccc([N+](=O)[O-])c2)cc1 [Compound 1036] |  | 6 | 
39 | CN(C)c1ccc(CC(=O)OCCCCCCCCOc2ccccc2C=CC(=O)c2ccccc2)cc1 [Compound 1038] |  | 22 | 
40 | COc1ccccc1OCCCCCCCCOC(=O)Cc1ccc(N(C)C)cc1 [Compound 1039] |  | 30 | 
41 | CN(C)c1ccc(CC(=O)OCCCCCCCCOc2ccc(C(=O)c3ccccc3)cc2)cc1 [Compound 1040] |  | 3 | 
42 | CN(C)c1ccc(CC(=O)OCCCCCCCCOc2cccc(N3CCOCC3)c2)cc1 [Compound 1045] |  | 14 | 
43 | CN(C)c1ccc(CC(=O)OCCCCCCCCOc2ccccc2N2CCCC2)cc1 [Compound 1046] |  | 2 | 
44 | CN(C)c1ccc(CC(=O)OCCCCCCCCOc2ccccc2N2CCOCC2)cc1 [Compound 1047] |  | 45 | 
45 | CCCCc1oc2ccccc2c1C(=O)c1ccc(OCCCOC(=O)c2ccc[n+](C)c2)cc1 [Compound 1064] | 37.5 |  | inhibition at 200 µM: 92%
46 | C[n+]1cccc(C(=O)OCCCCCCCCOc2cccc([N+](=O)[O-])c2)c1 [Compound 1065] | 37.5 |  | inhibition at 200 µM: 81%

Row | SMILES | IC50 [µM] | % Inhibition [2] [%] | further results
47 | C[n+]1cccc(C(=O)OCCCOc2ccc(C(=O)c3ccccc3)cc2)c1 [Compound 1068] | 62.5 |  | inhibition at 200 µM: 92%
48 | C[n+]1cccc(C(=O)OCCCOc2ccc(Oc3ccccc3)cc2)c1 [Compound 1070] | 36.2 |  | inhibition at 200 µM: 82%
49 | C[N+](C)(C)c1ccc(CC(=O)OCCCCCCCCOc2ccc([N+](=O)[O-])cc2)cc1 [Compound 1073] |  | 78 | 
50 | C[N+](C)(C)c1ccc(CC(=O)OCCCCCCCCOc2ccccc2C(=O)Nc2ccccc2)cc1 [Compound 1074] | 30 |  | inhibition at 200 µM: 91%
51 | C[N+](C)(C)c1ccc(CC(=O)OCCCCCCCCOc2ccccc2[N+](=O)[O-])cc1 [Compound 1075] |  | 79 | IC50 [3]: 65 µM
52 | CC(=O)c1ccccc1OCCCCCCCCOC(=O)Cc1ccc([N+](C)(C)C)cc1 [Compound 1076] | 135 |  | inhibition at 200 µM: 74%
53 | COc1cccc(OCCCCCCCCOC(=O)Cc2ccc([N+](C)(C)C)cc2)c1 [Compound 1077] |  | 73 | 
54 | CC(=O)c1ccc(OCCCCCCCCOC(=O)Cc2ccc([N+](C)(C)C)cc2)cc1 [Compound 1078] | 123 |  | inhibition at 200 µM: 68%
55 | C[N+](C)(C)c1ccc(CC(=O)OCCCCCCCCOc2cccc(OC(=O)c3ccccc3)c2)cc1 [Compound 1079] | 36.2 |  | inhibition at 200 µM: 97%
56 | C[N+](C)(C)c1ccc(CC(=O)OCCCCCCCCOc2ccccc2C(N)=O)cc1 [Compound 1080] | 100 |  | inhibition at 200 µM: 83%
57 | CC(=O)C=Cc1ccc(OCCCCCCCCOC(=O)Cc2ccc([N+](C)(C)C)cc2)cc1 [Compound 1081] | 67.5 |  | inhibition at 200 µM: 84%
58 | C[N+](C)(C)c1ccc(CC(=O)OCCCCCCCCOc2ccc(OC(=O)c3ccccc3)cc2)cc1 [Compound 1082] | 50 |  | inhibition at 200 µM: 81%
59 | CCCCc1oc2ccccc2c1C(=O)c1ccc(OCCCCCCCCOC(=O)Cc2ccc([N+](C)(C)C)cc2)cc1 [Compound 1084] |  | 106 | IC50 [3]: 12.5 µM
60 | C[N+](C)(C)c1ccc(CC(=O)OCCCCCCCCOc2cccc([N+](=O)[O-])c2)cc1 [Compound 1085] | 138 |  | inhibition at 200 µM: 87%
61 | C[N+](C)(C)c1ccc(CC(=O)OCCCCCCCCOc2ccccc2C=CC(=O)c2ccccc2)cc1 [Compound 1086] | 27.5 |  | inhibition at 200 µM: 81%
62 | COc1ccccc1OCCCCCCCCOC(=O)Cc1ccc([N+](C)(C)C)cc1 [Compound 1087] | 40 |  | inhibition at 200 µM: 61%
63 | C[N+](C)(C)c1ccc(CC(=O)OCCCCCCCCOc2ccc(C(=O)c3ccccc3)cc2)cc1 [Compound 1088] |  | 100 | 
64 | CC(=O)c1cccc(OCCCCCCCCOC(=O)Cc2ccc([N+](C)(C)C)cc2)c1 [Compound 1089] |  | 56 | 
65 | C[N+](C)(C)c1ccc(CC(=O)OCCCCCCCCOc2ccc(Oc3ccccc3)cc2)cc1 [Compound 1090] | 21.2 |  | inhibition at 200 µM: 96%
66 | C[N+](C)(C)c1ccc(CC(=O)OCCCCCCCCOc2cccc(N3CCOCC3)c2)cc1 [Compound 1092] |  | 60 | 
67 | C[N+](C)(C)c1ccc(CC(=O)OCCCCCCCCOc2ccccc2N2CCOCC2)cc1 [Compound 1093] |  | 66 | 
68 | COC(=O)c1cc2cc(OCc3ccccc3)ccc2n1CCCCCCCOC(=O)c1ccc(CN(C)C)cc1 [Compound 1096] |  | 140 | IC50 [3]: 68.9 µM
69 | COC(=O)c1cc2cc(OCc3ccccc3)ccc2n1CCCCCCCOC(=O)c1ccc(C[N+](C)(C)C)cc1 [Compound 1097] | 63.7 |  | inhibition at 200 µM: 98%
